# Test results published in ChEMBL document CHEMBL1156496 (J Biol Chem, 2007).
# pIC50, pKd: −log10 of the molar value.
# Columns and labels:
# [1] = Inhibition of complement component C3c
# [2] = Binding affinity to complement component C3c in human plasma; assay type: cell-free
compound,measurement,setting,value
CC[C@H](C)[C@H](N)C(=O)N[C@H]1CSSC[C@@H](C(=O)N[C@H](C(N)=O)[C@@H](C)O)NC(=O)[C@H](CCCNC(=N)N)NC(=O)[C@H](Cc2cnc[nH]2)NC(=O)[C@H](Cc2cnc[nH]2)NC(=O)CNC(=O)[C@H](Cc2c[nH]c3ccccc23)NC(=O)[C@H](CC(=O)O)NC(=O)[C@H](CCC(N)=O)NC(=O)[C@H](C(C)C)NC(=O)[C@H](C(C)C)NC1=O [COMPSTATIN],pIC50,[1],4.92
same,pKd,[2],6.41
